Measurements from PMC5104457, “ATP-Competitive MLKL Binders Have No Functional Impact on Necroptosis” (PLoS ONE, 2016).
“Also recorded” adds a separate entry of the source.

What was measured:
[1] = tested on: FADD (-/-) Jurkat cells; test: Necroptosis assay: rescue from TNF-α induced cell death; type: cell-based; settings: FADD deficient Jurkat cells; for IC50: TNF-α 15 ng/ml overnight, average of duplicates, read-out: Necroptosis cell IC50
Method: Necroptosis assays were performed at Charles River Laboratories (United Kingdom) and at Biogen. […] On the day of the experiment, cells were counted using Nexcelom Bioscience Cell Meter Vision and pelleted by centrifugation. Cell pellets were resuspended in fresh medium at 500,000 cells per mL and transferred to assay-ready compound plates prepared in 384-well white TC plates (Greiner #781080) at 20μl cells per well. Cells and compound were incubated at room temperature for 30 minutes followed by +/- stimulation with 15ng/ml TNF-α (Cell signalling Technologies #8902LF) overnight at 37°C. In the morning, plates were equilibrated to room temperature for 30 minutes and 25μl of CellTiter-Glow (CellTiter-Glo 2.0 Assay, Promega # G9243) diluted 1:4 in PBS was added to each well and allowed to incubate for 10 minutes at room temperature. Luminescence was read on an Envision plate reader (Perkin Elmer).
TNF-α added to these cells induces necroptosis or cell death. The term “Rescue” refers to the ability of a compound to prevent loss of cell viability in the presence of TNF. Definitions of the presence or absence of compound or TNF stimulation in the wells that were used to calculate degree of rescue or viability is defined in Table 1.
100% percent rescue is defined as the value of the “no TNF” wells minus the value of wells treated with “TNF”.
Percent Rescue is then the ratio of the intensity value of the experimental “well” minus the value of “TNF” treated wells divided by the overall difference between the value of “no TNF” treated wells and the value of “TNF” treated wells.
%rescue=((well - TNF)/(no TNF - TNF))x100

[2] = target: T1, pseudokinase MLKL-1 (Homo sapiens, UniProt Q8NB16); test: Differential scanning fluorimetry (thermal shift), MLKL pseudokinase domain; type: binding; settings: 10 μM compound, 1 μM protein, average of triplicates; read-out: MLKL Pseudo-kinase thermal shift at 10 μM
T1 construct: sub-cloning residues 191 to 471 of the pseudokinase domain of human MLKL cDNA; His6 (thrombin cleavable) (N); made in house; host or cells: Escherichia coli BL21 (DE3)
T1 sequence (Q8NB16 191-471): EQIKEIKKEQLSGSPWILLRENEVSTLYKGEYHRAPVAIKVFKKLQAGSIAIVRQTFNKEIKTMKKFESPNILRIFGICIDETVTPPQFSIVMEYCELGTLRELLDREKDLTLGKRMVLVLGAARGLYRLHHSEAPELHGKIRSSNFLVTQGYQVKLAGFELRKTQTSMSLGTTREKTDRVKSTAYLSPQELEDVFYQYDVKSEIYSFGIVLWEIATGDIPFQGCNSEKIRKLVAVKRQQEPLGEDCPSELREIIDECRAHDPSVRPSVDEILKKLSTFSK
Source text: MLKL-1 was constructed by sub-cloning residues 191 to 471 of the pseudokinase domain of human MLKL cDNA into a pET15b vector with a thrombin cleavable N-terminal six histidine fusion tag (His-MLKL-1). MLKL-2 had the same protein boundaries and fusion tag system as MLKL-1 but the dual mutations E366A and K367A were introduced using site directed mutagenesis and was expressed in the same vector (His-MLKL-2).
(§1) To measure the thermal stabilization of the proteins upon compound binding we employed differential scanning fluorimetry (DSF). The kinase domain of RIPK1 and the N-terminal domain HSP90α were expressed and purified as previously described. The pseudokinase MLKL-1, RIPK1 and Hsp90 were melted at 1μM final concentrations in 25mM HEPES pH 8.0, 250mM NaCl and 2.5mM DTT. Compounds were added to a final concentration of 10 μ M with a final DMSO concentration of 5%. The complexes were incubated on ice for 30 minutes. Protein Thermal Shift dye (Life Technologies) was added to 1X. The fluorescence intensities were measured using a Quantstudio real-time PCR system (Life Technologies) with excitation at 470 nm and emission at 586 nm. The samples, measured in triplicate, were heated from 25 to 85°C with a heating rate of […].

[3] = target: T2, kinase domain of RIPK1 (Homo sapiens, UniProt Q13546); test: Differential scanning fluorimetry (thermal shift), RIPK1 kinase domain; type: binding; settings: 10 μM compound, 1 μM protein, average of triplicates
T2 construct: The kinase domain of RIPK1; made in house
T2 sequence (Q13546 17-289 limits assumed): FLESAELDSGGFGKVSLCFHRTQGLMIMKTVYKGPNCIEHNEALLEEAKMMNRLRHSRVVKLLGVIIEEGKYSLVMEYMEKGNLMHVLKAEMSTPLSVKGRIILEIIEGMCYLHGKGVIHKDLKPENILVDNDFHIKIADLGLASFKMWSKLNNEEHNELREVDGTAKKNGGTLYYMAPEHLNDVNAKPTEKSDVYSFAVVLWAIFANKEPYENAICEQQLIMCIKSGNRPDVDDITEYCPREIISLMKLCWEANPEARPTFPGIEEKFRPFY
Method: as §1

[4] = tested on: RIPK3 phosphorylation of MLKL in 293T cells; test: MLKL phosphorylation assay (MSD), RIPK3-dependent phospho Ser358; type: cell-based, human; settings: 293T cells with GFP-MLKL and RIPK3-mCherry, 30 min compound, normalized to DMSO
Method: The cDNA clones of human MLKL (RC213152) and human RIPK3 (RC209549) were purchased from Origene. To generate GFP-MLKL and RIPK3-mCherry, coding sequences of the corresponding cDNA sequences were PCR amplified and cloned into Biogen’s mammalian expression vector.
293T cells grown in 10 cm plates were transfected with GFP-MLKL alone or both GFP-MLKL and RIPK3-mCherry plasmids. After 24 hours, cells were harvested and replated into poly D lysine coated 96W plate with 20,000 cells/ml. Four hours later, cells were treated with MLKL compounds for 30 min and incubated at 37°C. Thirty minutes later, the media was removed and cells were lysed in 150μl of Cell lysis buffer (Cell Signaling, MA) containing both protease and phosphatase inhibitors. The lysates were transferred to 96 well MSD plates (Meso Scale Discovery, MD) that were precoated with anti-mouse MLKL antibody H00197259-M02, 3B2, Novus Biologicals, CO), and incubated overnight at 4°C. After washing the plates three times with 1x MSD wash buffer (50mM TRIS-HCl, 150mM NaCl, 0.02% Tween 20, pH7.5), 100 μl of 0.5μg/ml of rabbit-anti-MLKL phospho Ser358 (Abcam AB187091) was added to each well. The plates were incubated for 2 hours at room temperature. After three washes with MSD wash buffer, 100 μ l of 0.5ug/ml of SULFO-tag labeled anti-rabbit IgG was added to each well and incubated for 1 hour at room temperature. After three washes, 1x Read bufferT (Meso Scale Discovery, MD) was added and the electrochemiluminescence (ECL) was measured with a MSD Sector Imager 600.

[5] = target: T3, RIPK1 kinase domain (Homo sapiens, UniProt Q13546); test: ATP-competitive probe displacement assay, RIPK1; type: binding; settings: for Kd: average of duplicates; for weaker potency to RIPK1 relative to MLKL: RIPK1 KD versus MLKL KD
T3 construct: purchased DiscoverX
T3 sequence (Q13546 17-289 limits assumed): T2 sequence (Q13546 17-289 limits assumed)
Method: (§2) Compound binding constants (KDs) were determined at DiscoverX using their KINOMEscan assay platform. This competition binding assay was previously described in Karaman et al. (2008)[18]. Briefly, full length MLKL was expressed in HEK-293 cells as a fusion with an NFκB DNA binding domain and subsequently tagged with a qPCR detection amplicon via interaction with NFκB. […] Twenty microliters of binding reactions were carried out in 384-well polypropylene plates for 1 hour at room temperature. Beads were subsequently washed and resuspended in elution buffer for 30 minutes at room temperature with shaking. The concentration of MLKL in the eluates was measured by qPCR and compound binding constants were calculated using a standard dose-response curve.
(§3) A similar approach was used to measure binding affinities for RIPK1 and RIPK3 kinase domains.

[6] = target: T4, full length MLKL (Homo sapiens, UniProt Q8NB16); test: KINOMEscan ATP-competitive probe displacement (competition binding) assay, MLKL; settings: for Kd: average of duplicates
T4 construct: purchased DiscoverX (KINOMEscan service); host or cells: HEK-293
T4 sequence (Q8NB16 1-471): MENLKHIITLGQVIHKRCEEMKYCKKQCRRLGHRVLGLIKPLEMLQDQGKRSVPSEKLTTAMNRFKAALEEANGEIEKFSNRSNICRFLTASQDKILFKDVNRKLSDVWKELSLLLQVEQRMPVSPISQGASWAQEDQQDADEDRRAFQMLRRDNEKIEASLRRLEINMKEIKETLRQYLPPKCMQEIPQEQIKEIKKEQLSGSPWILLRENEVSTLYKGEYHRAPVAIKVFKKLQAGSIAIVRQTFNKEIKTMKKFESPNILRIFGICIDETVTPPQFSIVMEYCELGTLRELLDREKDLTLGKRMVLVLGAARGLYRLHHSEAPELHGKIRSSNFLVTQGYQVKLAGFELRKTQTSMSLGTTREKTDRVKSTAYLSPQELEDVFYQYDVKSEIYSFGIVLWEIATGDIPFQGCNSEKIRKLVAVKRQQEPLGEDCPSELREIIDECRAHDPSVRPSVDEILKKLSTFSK
Method: as §2, with “This competition binding assay was previously described in Karaman et al. (2008)[18].” left out
as §3

[7] = target: T5, RIPK3 kinase domain (Homo sapiens, UniProt Q9Y572); test: ATP-competitive probe displacement assay, RIPK3; type: binding
T5 construct: purchased DiscoverX
Method: as §2, §3

[8] = tested on: FADD (-/-) Jurkat cells; test: Viability experiment in the absence of TNF; type: cell-based; settings: FADD deficient Jurkat cells, no TNF, Fig 3F
Method: Necroptosis assays were performed at Charles River Laboratories (United Kingdom) and at Biogen. […] On the day of the experiment, cells were counted using Nexcelom Bioscience Cell Meter Vision and pelleted by centrifugation. Cell pellets were resuspended in fresh medium at 500,000 cells per mL and transferred to assay-ready compound plates prepared in 384-well white TC plates (Greiner #781080) at 20μl cells per well. Cells and compound were incubated at room temperature for 30 minutes followed by +/- stimulation with 15ng/ml TNF-α (Cell signalling Technologies #8902LF) overnight at 37°C. In the morning, plates were equilibrated to room temperature for 30 minutes and 25μl of CellTiter-Glow (CellTiter-Glo 2.0 Assay, Promega # G9243) diluted 1:4 in PBS was added to each well and allowed to incubate for 10 minutes at room temperature. Luminescence was read on an Envision plate reader (Perkin Elmer). Percent viability values are calculated from separate dose response experiments identical to the percent rescue experiment except that no TNF is added to the cells. This assay is intended to identify compounds that not only don’t rescue, but are toxic themselves. 100% Viability is defined as the intensity value of the “no TNF” wells, cell treated with neither compound nor TNF. […]

T5 sequence (Q9Y572 21-287 limits assumed): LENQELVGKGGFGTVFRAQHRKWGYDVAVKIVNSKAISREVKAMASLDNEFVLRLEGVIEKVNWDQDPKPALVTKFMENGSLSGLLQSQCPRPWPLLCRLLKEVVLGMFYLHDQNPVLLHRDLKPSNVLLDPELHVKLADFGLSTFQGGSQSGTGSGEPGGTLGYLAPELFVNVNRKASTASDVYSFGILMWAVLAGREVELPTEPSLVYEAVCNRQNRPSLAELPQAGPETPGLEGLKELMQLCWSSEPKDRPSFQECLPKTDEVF

Row | ΔTm at 10 µM [2] | ΔTm at 10 µM [3] | Kd [5] | weaker potency to RIPK1 relative to MLKL [5] | Kd [6] | Compound | IC50 ([1]; Homo sapiens) | effect on RIPK3-dependent phosphorylation of MLKL (phospho Ser358, in words) [4] | other results
1 | 5.63 °C | 0.75 °C | – | – | – | C[C@@H](Oc1cc(-c2cnn(C3CCNCC3)c2)cnc1N)c1c(Cl)ccc(F)c1Cl [Crizontinib, reference compound] | > 40000 nM | does not impact its phosphorylation | rescue of cells from necroptosis (in words) ([1]; dose-response, Fig 3): does not rescue cells from necroptosis
2 | – | – | – | – | – | CC(C)S(=O)(=O)c1ccc2nccc(Nc3ccc4scnc4c3)c2c1 [GSK872] | – | completely inhibited; also recorded: inhibits phosphorylation of MLKL | –
3 | 0.67 °C | 0.15 °C | > 30000 nM | – | – | COc1nccnc1NS(=O)(=O)c1ccc(NC(=O)/C=C/c2ccc([N+](=O)[O-])s2)cc1 [NSA, Necrosulfonamide, reference compound] | 200 nM | – | displacement of the ATP probe from / binding to RIPK1 (in words) [5]: not to displace the ATP probe; displacement of the ATP probe from MLKL (in words) ([6]; data not shown): not to displace the ATP probe; displacement of the ATP probe from / binding to RIPK3 (in words) [7]: not to displace the ATP probe; Kd ([7]; average of duplicates): > 30000 nM
4 | – | – | – | – | – | CN1C(=O)C(Cc2c[nH]c3ccccc23)NC1=S (stereo not shown) [Nec1s, Necrostatin, reference compound] | – | – | EC50 ([1]; Homo sapiens, TNF stimulation): 500 nM; effect on cell viability in the absence of TNF stimulation (in words) [8]: does not effect cell viability
5 | 2.93 °C | 0 °C | > 10000 nM | at least 10 fold | 780 nM | CC(=O)Nc1ccc(N(C)c2ccnc(Nc3cccc(S(N)(=O)=O)c3)n2)cc1 [cpd 2] | > 40000 nM | – | –
6 | 1.57 °C | 0.31 °C | > 10000 nM | at least 10 fold | 880 nM | CN(c1ccc(N)cc1)c1ccnc(Nc2cccc(S(N)(=O)=O)c2)n1 [cpd 3] | > 40000 nM | – | –
